# In patent US20180055032A1, “ODORS FOR PSYLLID TRAPPING, REPELLING AND CONTROL” (The Regents of the University of California, priority 2011, published 2018):
# Like-named read-outs stand apart in the source and are kept apart here.
# Tests used:
# Format in all cases: cell-based, Diaphorina citri
# [1] = test system: neuron 2A (rhinarial plate on flagellomere 2); assay: single-sensillum electrophysiology, odor response of neuron 2A; conditions: for response to inhibitory odors, 2A: Table 2, odor diluted to 10^−2, 50 μL in cartridge; for odor response (frequency of action potentials during stimulus minus baseline), 2A: Table 1, odor diluted to 1%, 50 μL in cartridge; for all read-outs here: key: 0, no response; +, >50 spikes/second; ++, >100 spikes/second; +++, >150 spikes/second
# [2] = test system: neuron 7B (rhinarial plate on flagellomere 7); conditions: for odor response (frequency of action potentials during stimulus minus baseline), 7B: Table 1, odor diluted to 1%, 50 μL in cartridge; for response to inhibitory odors, 7B: key: 0, no response; +, >50 spikes/second; ++, >100 spikes/second; +++, >150 spikes/second
# [3] = test system: neuron 4B (rhinarial plate on flagellomere 4); conditions: for odor response (frequency of action potentials during stimulus minus baseline), 4B: Table 1, odor diluted to 1%, 50 μL in cartridge
# [4] = test system: neuron 6C (rhinarial plate on flagellomere 6); assay: single-sensillum electrophysiology, odor response of neuron 6C; conditions: for response to inhibitory odors, 6C: Table 2, odor diluted to 10^−2, 50 μL in cartridge; for odor response (frequency of action potentials during stimulus minus baseline), 6C: Table 1, odor diluted to 1%, 50 μL in cartridge
# [5] = test system: neuron 4C (rhinarial plate on flagellomere 4); assay: single-sensillum electrophysiology, odor response of neuron 4C; conditions: Table 2; odor diluted to 10^−2, 50 μL in cartridge; note: key: 0, no response; +, >50 spikes/second; ++, >100 spikes/second; +++, >150 spikes/second
# [6] = test system: neuron 6B (rhinarial plate on flagellomere 6); assay: single-sensillum electrophysiology, odor response of neuron 6B; conditions: for response to inhibitory odors, 6B: Table 2, odor diluted to 10^−2, 50 μL in cartridge; for odor response (frequency of action potentials during stimulus minus baseline), 6B: Table 1, odor diluted to 1%, 50 μL in cartridge
# [7] = test system: neuron 2C (rhinarial plate on flagellomere 2); assay: single-sensillum electrophysiology, odor response of neuron 2C; conditions: for response to inhibitory odors, 2C: Table 2, odor diluted to 10^−2, 50 μL in cartridge; for odor response (frequency of action potentials during stimulus minus baseline), 2C: Table 1, odor diluted to 1%, 50 μL in cartridge
# [8] = test system: neuron 4A (rhinarial plate on flagellomere 4); assay: single-sensillum electrophysiology, odor response of neuron 4A; conditions: for response to inhibitory odors, 4A: Table 2, odor diluted to 10^−2, 50 μL in cartridge; for odor response (frequency of action potentials during stimulus minus baseline), 4A: Table 1, odor diluted to 1%, 50 μL in cartridge
# [9] = test system: neuron 6A (rhinarial plate on flagellomere 6); assay: single-sensillum electrophysiology, odor response of neuron 6A; conditions: for response to inhibitory odors, 6A: Table 2, odor diluted to 10^−2, 50 μL in cartridge; for odor response (frequency of action potentials during stimulus minus baseline), 6A: Table 1, odor diluted to 1%, 50 μL in cartridge
# [10] = test system: neuron 7A (rhinarial plate on flagellomere 7); assay: single-sensillum electrophysiology, odor response of neuron 7A; conditions: for response to inhibitory odors, 7A: Table 2, odor diluted to 10^−2, 50 μL in cartridge; for odor response (frequency of action potentials during stimulus minus baseline), 7A: Table 1, odor diluted to 1%, 50 μL in cartridge; for all read-outs here: key: 0, no response; +, >50 spikes/second; ++, >100 spikes/second; +++, >150 spikes/second
# [11] = test system: neuron 7C (rhinarial plate on flagellomere 7); assay: single-sensillum electrophysiology, odor response of neuron 7C; conditions: for response to inhibitory odors, 7C: Table 2, odor diluted to 10^−2, 50 μL in cartridge; for odor response (frequency of action potentials during stimulus minus baseline), 7C: Table 1, odor diluted to 1%, 50 μL in cartridge
# [12] = test system: neuron 2B (rhinarial plate on flagellomere 2); assay: single-sensillum electrophysiology, odor response of neuron 2B; conditions: for odor response (frequency of action potentials during stimulus minus baseline), 2B: Table 1, odor diluted to 1%, 50 μL in cartridge; for response to inhibitory odors, 2B: Table 2, odor diluted to 10^−2, 50 μL in cartridge
# [13] = Table 2, odor diluted to 10^−2, 50 μL in cartridge
smiles,measurement,setting,value
"CC(=O)C(C)=O [2,3-butanedione]","response to inhibitory odors, 2A",[1],0
same,"response to inhibitory odors, 7B",[2]; [13],0
same,"response to inhibitory odors, 4B",[3]; [13],0
same,"response to inhibitory odors, 6C",[4],0
same,"response to inhibitory odors, 4C",[5],0
same,"response to inhibitory odors, 6B",[6],0
same,"response to inhibitory odors, 2C",[7],0
same,"response to inhibitory odors, 4A",[8],0
same,"response to inhibitory odors, 6A",[9],0
same,"response to inhibitory odors, 7A",[10],0
same,"response to inhibitory odors, 7C",[11],0
CC1=CC[C@H]2C[C@@H]1C2(C)C [(−)-α-pinene],"odor response (frequency of action potentials during stimulus minus baseline), 2A",[1],0
same,"odor response (frequency of action potentials during stimulus minus baseline), 7B",[2],0
same,"odor response (frequency of action potentials during stimulus minus baseline), 4B",[3],"+ (+, >50 spikes/second)"
same,"odor response (frequency of action potentials during stimulus minus baseline), 6C",[4],0
same,"odor response (frequency of action potentials during stimulus minus baseline), 2B",[12],0
same,"odor response (frequency of action potentials during stimulus minus baseline), 6B",[6],"+ (+, >50 spikes/second)"
same,"odor response (frequency of action potentials during stimulus minus baseline), 2C",[7],0
same,"odor response (frequency of action potentials during stimulus minus baseline), 4A",[8],0
same,"odor response (frequency of action potentials during stimulus minus baseline), 6A",[9],0
same,"odor response (frequency of action potentials during stimulus minus baseline), 7A",[10],0
same,"odor response (frequency of action potentials during stimulus minus baseline), 7C",[11],0
C=C1CC[C@H]2C[C@@H]1C2(C)C [(−)-β-pinene],"odor response (frequency of action potentials during stimulus minus baseline), 2A",[1],0
same,"odor response (frequency of action potentials during stimulus minus baseline), 7B",[2],0
same,"odor response (frequency of action potentials during stimulus minus baseline), 4B",[3],"+ (+, >50 spikes/second)"
same,"odor response (frequency of action potentials during stimulus minus baseline), 6C",[4],0
same,"odor response (frequency of action potentials during stimulus minus baseline), 2B",[12],0
same,"odor response (frequency of action potentials during stimulus minus baseline), 6B",[6],"+ (+, >50 spikes/second)"
same,"odor response (frequency of action potentials during stimulus minus baseline), 2C",[7],0
same,"odor response (frequency of action potentials during stimulus minus baseline), 4A",[8],0
same,"odor response (frequency of action potentials during stimulus minus baseline), 6A",[9],0
same,"odor response (frequency of action potentials during stimulus minus baseline), 7A",[10],0
same,"odor response (frequency of action potentials during stimulus minus baseline), 7C",[11],0
CN1CCCCC1 [N-methylpiperidine],"response to inhibitory odors, 2A",[1],0
same,"response to inhibitory odors, 7B",[2]; [13],0
same,"response to inhibitory odors, 4B",[3]; [13],0
same,"response to inhibitory odors, 6C",[4],0
same,"response to inhibitory odors, 4C",[5],0
same,"response to inhibitory odors, 2B",[12],0
same,"response to inhibitory odors, 6B",[6],0
same,"response to inhibitory odors, 2C",[7],0
same,"response to inhibitory odors, 4A",[8],0
same,"response to inhibitory odors, 6A",[9],0
same,"response to inhibitory odors, 7A",[10],0
CC(=O)O [acetic acid],"response to inhibitory odors, 2A",[1],0
same,"response to inhibitory odors, 7B",[2],0
same,"response to inhibitory odors, 6C",[4],0
same,"response to inhibitory odors, 4C",[5],0
same,"response to inhibitory odors, 2B",[12],0
same,"response to inhibitory odors, 2C",[7],0
same,"response to inhibitory odors, 4A",[8],0
same,"response to inhibitory odors, 6A",[9],0
same,"response to inhibitory odors, 7A",[10],0
CNC [dimethyl amine],"response to inhibitory odors, 2A",[1],0
same,"response to inhibitory odors, 7B",[2],0
same,"response to inhibitory odors, 4B",[3],0
same,"response to inhibitory odors, 4C",[5],0
same,"response to inhibitory odors, 2B",[12],0
same,"response to inhibitory odors, 6B",[6],0
same,"response to inhibitory odors, 2C",[7],0
same,"response to inhibitory odors, 4A",[8],0
same,"response to inhibitory odors, 6A",[9],0
same,"response to inhibitory odors, 7A",[10],0
CCCCCC(=O)OCC [ethyl hexanoate],"response to inhibitory odors, 2A",[1],0
same,"response to inhibitory odors, 7B",[2]; [13],0
same,"response to inhibitory odors, 4B",[3]; [13],0
same,"response to inhibitory odors, 6C",[4],0
same,"response to inhibitory odors, 4C",[5],0
same,"response to inhibitory odors, 2B",[12],0
same,"response to inhibitory odors, 6B",[6],0
same,"response to inhibitory odors, 2C",[7],0
same,"response to inhibitory odors, 4A",[8],0
same,"response to inhibitory odors, 6A",[9],0
same,"response to inhibitory odors, 7A",[10],0
CCCCCCN [hexylamine],"response to inhibitory odors, 2A",[1],0
same,"response to inhibitory odors, 7B",[2]; [13],0
same,"response to inhibitory odors, 4B",[3]; [13],0
same,"response to inhibitory odors, 6C",[4],0
same,"response to inhibitory odors, 2B",[12],0
same,"response to inhibitory odors, 6B",[6],0
same,"response to inhibitory odors, 2C",[7],0
same,"response to inhibitory odors, 4A",[8],0
same,"response to inhibitory odors, 6A",[9],0
same,"response to inhibitory odors, 7A",[10],0
same,"response to inhibitory odors, 7C",[11],0
CC(C)C(=O)O [isobutyric acid],"response to inhibitory odors, 2A",[1],0
same,"response to inhibitory odors, 7B",[2]; [13],0
same,"response to inhibitory odors, 2B",[12],0
same,"response to inhibitory odors, 6B",[6],0
same,"response to inhibitory odors, 2C",[7],0
same,"response to inhibitory odors, 4A",[8],0
same,"response to inhibitory odors, 6A",[9],0
same,"response to inhibitory odors, 7A",[10],0
same,"response to inhibitory odors, 7C",[11],0
CCCCCCCCOC(C)=O [n-octyl acetate],"response to inhibitory odors, 2A",[1],0
same,"response to inhibitory odors, 7B",[2]; [13],0
same,"response to inhibitory odors, 6C",[4],0
same,"response to inhibitory odors, 4C",[5],0
same,"response to inhibitory odors, 2B",[12],0
same,"response to inhibitory odors, 6B",[6],0
same,"response to inhibitory odors, 2C",[7],0
same,"response to inhibitory odors, 4A",[8],0
same,"response to inhibitory odors, 6A",[9],0
same,"response to inhibitory odors, 7A",[10],0
same,"response to inhibitory odors, 7C",[11],0
CCCCCN [pentylamine],"response to inhibitory odors, 2A",[1],0
same,"response to inhibitory odors, 7B",[2]; [13],0
same,"response to inhibitory odors, 4B",[3]; [13],0
same,"response to inhibitory odors, 6C",[4],0
same,"response to inhibitory odors, 6B",[6],0
same,"response to inhibitory odors, 2C",[7],0
same,"response to inhibitory odors, 4A",[8],0
same,"response to inhibitory odors, 6A",[9],0
same,"response to inhibitory odors, 7A",[10],0
same,"response to inhibitory odors, 7C",[11],0
CCC(=O)O [propionic acid],"response to inhibitory odors, 2A",[1],0
same,"response to inhibitory odors, 7B",[2]; [13],0
same,"response to inhibitory odors, 6C",[4],0
same,"response to inhibitory odors, 4C",[5],0
same,"response to inhibitory odors, 2B",[12],0
same,"response to inhibitory odors, 2C",[7],0
same,"response to inhibitory odors, 4A",[8],0
same,"response to inhibitory odors, 6A",[9],0
same,"response to inhibitory odors, 7A",[10],0
same,"response to inhibitory odors, 7C",[11],0
Cl.Cl.NCCCCN [putrescine dihydrochloride],"response to inhibitory odors, 2A",[1],0
same,"response to inhibitory odors, 7B",[2],0
same,"response to inhibitory odors, 4B",[3],0
same,"response to inhibitory odors, 6C",[4],0
same,"response to inhibitory odors, 4C",[5],0
same,"response to inhibitory odors, 6B",[6],0
same,"response to inhibitory odors, 2C",[7],0
same,"response to inhibitory odors, 4A",[8],0
same,"response to inhibitory odors, 6A",[9],0
same,"response to inhibitory odors, 7A",[10],0
same,"response to inhibitory odors, 7C",[11],0
c1ccncc1 [pyridine],"response to inhibitory odors, 2A",[1],0
same,"response to inhibitory odors, 7B",[2],0
same,"response to inhibitory odors, 4B",[3],0
same,"response to inhibitory odors, 6C",[4],0
same,"response to inhibitory odors, 2B",[12],0
same,"response to inhibitory odors, 6B",[6],0
same,"response to inhibitory odors, 2C",[7],0
same,"response to inhibitory odors, 4A",[8],0
same,"response to inhibitory odors, 6A",[9],0
same,"response to inhibitory odors, 7A",[10],0
same,"response to inhibitory odors, 7C",[11],0
CC1CC(=O)O1 (stereo not drawn) [β-butyrolactone],"response to inhibitory odors, 2A",[1],0
same,"response to inhibitory odors, 7B",[2]; [13],0
same,"response to inhibitory odors, 6C",[4],0
same,"response to inhibitory odors, 4C",[5],0
same,"response to inhibitory odors, 2B",[12],0
same,"response to inhibitory odors, 6B",[6],0
same,"response to inhibitory odors, 2C",[7],0
same,"response to inhibitory odors, 4A",[8],0
same,"response to inhibitory odors, 6A",[9],0
same,"response to inhibitory odors, 7A",[10],0
same,"response to inhibitory odors, 7C",[11],0
